Legend:
E. coli [1] = experiment: Uptake of tracer in E. coli bacterial culture, with maltose competition; type: cell-based, Escherichia coli; details: for blocking of uptake in E. coli by co-incubation with cold maltose: co-incubation with 1 mM of cold maltose, p<0.0003; for accumulation (uptake) of tracer in E. coli over time: in vitro bacterial culture
Method: FIG. 2.1 is a graph showing uptake of 6″-[^18F]fluoromaltotriose in vitro in E coli at 15 minutes, 30 minutes, and 30 minutes with 1 mM of maltose.
(§1) 6″-[^18F]-fluoromaltotriose (FIG. 1.1B) was synthesized. The uptake of 6″-[^18F]-fluoromaltotriose was evaluated in E. coli. […] The uptake in E. coli could also be blocked by a co-incubation with 1 mM of cold maltose (98% blocking, p<0.0003), the natural substrate of the transporter, confirming that the tracer was a substrate of the bacterial maltose transporter. 10^8 colony-forming units (CFU) of E. coli was then inoculated in the right thigh muscle of nude mice (n=4). 24 h later, 200 uCi of the 6″-[^18F]-fluoromaltotriose was administered via tail vein and dynamic PET/CT scans were obtained over the course of one hour. […] The route of clearance of the tracer is renal which makes it suitable for clinical translation.
In regard to FIG. 5.1A, 6″-[^18F]fluoromaltotriose was synthesized from precursor per-O-acetyl-6″-deoxy-6″-nosyl-maltotriose (1). Precursor 1 was prepared from per-O-acetyl-6″-hydroxymaltotriose via a nosylation reaction. This method utilizes the reaction between the leaving group nosylate in precursor 1 and anhydrous [^18F]KF/Kryptofix 2.2.2 in acetonitrile at 85° C. for 15 min to give per-O-acetyl-6″-deoxy-6″-[^18F]fluoromaltotriose (2). Basic hydrolysis of the acetyl protecting groups in 2 yielded 6″-[^18F]fluoromaltotriose (3). Also, cold 6″-fluoromaltotriose (for comparison with 6″ [^18F]fluoromatotriose) was prepared from per-O-acetyl-6-hydroxymaltotriose via a DAST reaction followed by a basic hydrolysis. Escherichia-coli uptake of 6″-[^18F]fluoromaltotriose was evaluated in bacterial culture.
We have successfully synthesized 6″-[^18F]fluoromaltotriose in 4-7% radiochemical yield (decay corrected) with 95% chemical and radio-chemical purities. Total synthesis time was 125 min. […] This observation is consistent with 6″-[^18F]fluoromaltotriose being recognized and transported by the bacteria in a manner similar to maltose.

E. coli [2] = experiment: PET/CT imaging of E. coli infection in thigh muscle of nude mice; type: in vivo; details: for route of clearance: mice, intravenous (tail vein)
Method: FIGS. 1.1A-B show PET/CT scan of a mouse that had been injected with 200 μCi of 6″-[^18F]-fluoromaltotriose. The arrow indicates the site of infection.
as §1, with “(n=4).” for “(n=4). 24 h later, 200 uCi of the 6″-[^18F]-fluoromaltotriose was administered via tail vein and dynamic PET/CT scans were obtained over the course of one hour.”

[3] = Biodistribution and pharmacokinetics in mice; type: in vivo; details: FIG. 3.1
Text: FIG. 3.1 illustrates a graph comparing the biodistribution and pharmacokinetics of 6-fluoromaltose and 6″-fluoromaltotriose in mice.
FIG. 3.1, example 3, illustrates a graph comparing the biodistribution and pharmacokinetics of 6-fluoromaltose and 6″-Fluoromaltotriose in mice.

[4] = listed as 6″-[^18F]fluoromaltotriose

## OC[C@H]1O[C@H](O[C@H]2[C@H](O)[C@@H](O)C(O)O[C@@H]2CO)[C@H](O)[C@@H](O)[C@@H]1O[C@H]1O[C@H](C[18F])[C@@H](O)[C@H](O)[C@H]1O (some centres unmarked) [6″-[^18F]-fluoromaltotriose, 6″-[^18F]fluoromaltotriose]
E. coli [1]
  blocking of uptake in E. coli by co-incubation with cold maltose: 98%
  accumulation (uptake) of tracer in E. coli over time: increased over time
E. coli [1]; [4]
  blocking of uptake in E. coli by co-incubation with cold maltose: 90%
E. coli [1]; listed as 6″-[^19F]fluoromaltotriose
  accumulation (uptake) of tracer in E. coli over time: time dependent
E. coli [2]; 2 hours after implantation (FIG. 1.2)
  imaging of viable bacteria: can image 10^8 CFU of viable bacteria
E. coli [2]; PET/CT image at 1 hour, 24 h after inoculation
  accumulation of tracer at the site of infection (PET/CT image): clearly accumulated in the infected leg
E. coli [2]; ROI analysis, PET/CT, p<0.05
  uptake in infected muscle relative to contra-lateral muscle: 3.1 fold
E. coli [2]
  route of clearance: renal
E. coli [2]; [4]
  route of clearance: predominantly renal clearance
E. coli [2]; nude mice, 10^8 CFU E. coli in right thigh muscle, 24 h later 200 uCi via tail vein, PET/CT at 1 hour, mean±SD
  average uptake in infected muscle (ROI analysis): 4.7±1.3 % ID/g
[3]
  tissue uptake as compared to first generation tracer 6-fluoromaltose: reduced blood, heart, liver, lung and muscle uptake

— US10881749B2, “Probes and methods of imaging a bacterial infection” (The Board of Trustees of the Leland Stanford Junior …, priority 2015, dated 2021)
